According to patent publication US20240228458A1, “PYRIMIDINE DERIVATIVE HAVING PROTEIN KINASE INHIBITORY ACTIVITY, AND THERAPEUTIC PHARMACEUTICAL COMPOSITION COMPRISING SAME” (THERAPEX CO., LTD., priority 2021, published 2024):

Experiments:
Type in all cases: cell-based
[1] = tested on: Ba/F3 cells expressing del19/T790M/C797S (EGFR-DTC); test: Growth inhibition (GI50) of Ba/F3 cells expressing del19/T790M/C797S (EGFR-DTC), Celltiter glo; details: Mus musculus, BaF3, 72 h
Procedure, shortened: (§1)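 Viability read by CellTiter-Glo after 72 h compound exposure (37 °C, 5% CO2) of variant-expressing Ba/F3 cells plated at 100,000 cells/ml. Dosing 4 h post-seeding; 10-pt 4-fold series from 2 mM stock; 0.5% DMSO. GI50 = molar concentration (μM) giving half-maximal growth inhibition.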

[2] = tested on: Ba/F3 cells expressing EGFR-wt; test: Growth inhibition (GI50) of Ba/F3 cells expressing EGFR-wt, Celltiter glo; details: Mus musculus, BaF3, 72 h
Procedure, shortened: as §1

[3] = tested on: Ba/F3 cells expressing L858R/T790M/C797S (EGFR-LTC); test: Growth inhibition (GI50) of Ba/F3 cells expressing L858R/T790M/C797S (EGFR-LTC), Celltiter glo; details: Mus musculus, BaF3, 72 h
Procedure, shortened: as §1

parental Ba/F3 cell line = test: Growth inhibition (GI50) of the parental Ba/F3 cell line (not introduced with EGFR variants), Celltiter glo; details: Mus musculus, BaF3, 72 h, parental Ba/F3 cells
Procedure, shortened: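 Viable cell count by CellTiter-Glo after 72 h at 37 °C gave GI50 values (μM, 50% growth inhibition). Cells lacking EGFR variants were seeded at 100,000 cells/ml and dosed 4 h later with 4-fold serial dilutions from a 2 mM stock, 0.5% DMSO.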

[4] = tested on: Ba/F3 cells expressing del19/T790M (EGFR-DT); test: Growth inhibition (GI50) of Ba/F3 cells expressing del19/T790M (EGFR-DT), Celltiter glo; details: Mus musculus, BaF3, 72 h
Procedure, shortened: as §1

[5] = tested on: Ba/F3 cells expressing L858R/T790M (EGFR-LT); test: Growth inhibition (GI50) of Ba/F3 cells expressing L858R/T790M (EGFR-LT), Celltiter glo; details: Mus musculus, BaF3, 72 h
Procedure, shortened: as §1

| SMILES | GI50 [1] | GI50 [2] | GI50 [3] | GI50 [4] | GI50 [5] | GI50 (parental Ba/F3 cell line) |
| --- | --- | --- | --- | --- | --- | --- |
| CNS(=O)(=O)c1ccccc1Nc1nc(Nc2ccc(N3CCN(CCO)CC3)nc2OC)ncc1Cl [Example 56, 2-((5-chloro-2-((6-(4-(2-hydroxyethyl)piperazin-1-yl)-2-methoxypyridin-3-yl)amino)pyrimidin-4-yl)amino)-N-methylbenzenesulfonamide] | 0.5 to 2 µM | 0.5 to 2 µM | 0.5 to 2 µM | 0.1 to 0.5 µM | 0.5 to 2 µM | 2 to 10 µM |
| COc1ccc(NS(C)(=O)=O)c(Nc2nc(Nc3cc(Cl)c(N4CCC(N5CCCC(N(C)C)C5)CC4)cc3OC)ncc2Cl)c1 (stereo not drawn) [Example 237, N-(2-((5-chloro-2-((5-chloro-4-(3-(dimethylamino)-[1,4′-bipiperidin]-1′-yl)-2-methoxyphenyl)amino)pyrimidin-4-yl)amino)-4-methoxyphenyl)methanesulfonamide] | 0.1 to 0.5 µM | 0.5 to 2 µM | 0.001 to 0.025 µM | 0.1 to 0.5 µM | 0.001 to 0.025 µM | 2 to 10 µM |
| CN1CCN(C2CCN(c3cc(Cl)c(Nc4ncc(Br)c(Nc5cc(Cl)ccc5N(C)S(C)(=O)=O)n4)cc3Cl)CC2)CC1 [Example 228, N-(2-((5-bromo-2-((2,5-dichloro-4-(4-(4-methylpiperazin-1-yl)piperidin-1-yl)phenyl)amino)pyrimidin-4-yl)amino)-4-chlorophenyl)-N-methylmethanesulfonamide] | 0.001 to 0.025 µM | 0.1 to 0.5 µM | 0.025 to 0.1 µM | 0.025 to 0.1 µM | 0.001 to 0.025 µM | 0.1 to 0.5 µM |
| COc1cc(N2CCC(N3CCN(C)CC3)CC2)c(C)cc1Nc1ncc(Br)c(Nc2cc3c(cc2NS(C)(=O)=O)CCO3)n1 [Example 169, N-(6-((5-bromo-2-((2-methoxy-5-methyl-4-(4-(4-methylpiperazin-1-yl)piperidin-1-yl)phenyl)amino)pyrimidin-4-yl)amino)-2,3-dihydrobenzofuran-5-yl)methanesulfonamide] | 0.001 to 0.025 µM | 0.1 to 0.5 µM | 0.001 to 0.025 µM | 0.001 to 0.025 µM | 0.001 to 0.025 µM | 0.5 to 2 µM |
| CN1CCN(C2CCN(c3ccc4cc(Nc5ncc(Br)c(Nc6cc7c(cc6NS(C)(=O)=O)CCO7)n5)ccc4n3)CC2)CC1 [Example 247, N-(6-((5-bromo-2-((2-(4-(4-methylpiperazin-1-yl)piperidin-1-yl)quinolin-6-yl)amino)pyrimidin-4-yl)amino)-2,3-dihydrobenzofuran-5-yl)methanesulfonamide] | 0.1 to 0.5 µM | 0.5 to 2 µM | 0.1 to 0.5 µM | 0.025 to 0.1 µM | 0.1 to 0.5 µM | 2 to 10 µM |
| COc1ccc(NS(C)(=O)=O)c(Nc2nc(Nc3cc(C)c(N4CCC(N5CCN(C6CC6)CC5)CC4)cc3OC)ncc2Cl)c1 [Example 233, N-(2-((5-chloro-2-((4-(4-(4-cyclopropylpiperazin-1-yl)piperidin-1-yl)-2-methoxy-5-methylphenyl)amino)pyrimidin-4-yl)amino)-4-methoxyphenyl)methanesulfonamide] | 0.025 to 0.1 µM | 0.5 to 2 µM | 0.025 to 0.1 µM | 0.025 to 0.1 µM | 0.025 to 0.1 µM | 2 to 10 µM |
| COc1cc(N2CCC(N3CCN(C)CC3)CC2)c(Br)cc1Nc1ncc(Br)c(Nc2cc3c(cc2NS(C)(=O)=O)CCO3)n1 [Example 271, N-(6-((2-((5-bromo-2-methoxy-4-(4-(4-methylpiperazin-1-yl)piperidin-1-yl)phenyl)amino)-5-bromopyrimidin-4-yl)amino)-2,3-dihydrobenzofuran-5-yl)methanesulfonamide] | 0.001 to 0.025 µM | 2 to 10 µM | 0.001 to 0.025 µM | 0.001 to 0.025 µM | 0.001 to 0.025 µM | 2 to 10 µM |
| COc1nc(N2CCC(O)CC2)ccc1Nc1ncc(Cl)c(Nc2ccc(F)cc2NS(C)(=O)=O)n1 [Example 21, N-(2-((5-chloro-((6-(4-hydroxypiperidin-1-yl)-2-methoxypyridin-3-yl)amino)pyrimidin-4-yl)amino)-5-fluorophenyl)methanesulfonamide] | 0.5 to 2 µM | 2 to 10 µM | 0.5 to 2 µM | 0.5 to 2 µM | 2 to 10 µM | > 10 µM |
| COc1cc(N2CCC(N3CCCC(N(C)C)C3)CC2)c(Cl)cc1Nc1ncc(Br)c(Nc2ccc(F)cc2NS(C)(=O)=O)n1 (stereo not drawn) [Example 149, N-(2-((5-bromo-2-((5-chloro-4-(3-(dimethylamino)-[1,4′-bipiperidin]-1′-yl)-2-methoxyphenyl)amino)pyrimidin-4-yl)amino)-5-fluorophenyl)methanesulfonamide] | 0.1 to 0.5 µM | 0.1 to 0.5 µM | 0.025 to 0.1 µM | 0.1 to 0.5 µM | 0.1 to 0.5 µM | 0.1 to 0.5 µM |
| COc1cc(N2CCC(N3CCN(C)CC3)CC2)c(F)cc1Nc1ncc(Br)c(Nc2cc3c(cc2N(C)S(C)(=O)=O)CCO3)n1 [Example 256, N-(6-((5-bromo-2-((5-fluoro-2-methoxy-4-(4-(4-methylpiperazin-1-yl)piperidin-1-yl)phenyl)amino)pyrimidin-4-yl)amino)-2,3-dihydrobenzofuran-5-yl)-N-methylmethanesulfonamide] | 0.025 to 0.1 µM | 0.1 to 0.5 µM | 0.1 to 0.5 µM | 0.001 to 0.025 µM | 0.1 to 0.5 µM | 0.1 to 0.5 µM |
| COc1cc(N2CCC(N3CCN(C)CC3)CC2)ccc1Nc1ncc(Br)c(Nc2cc3c(cc2NS(C)(=O)=O)CCO3)n1 [Example 243, N-(6-((5-bromo-2-((2-methoxy-4-(4-(4-methylpiperazin-1-yl)piperidin-1-yl)phenyl)amino)pyrimidin-4-yl)amino)-2,3-dihydrobenzofuran-5-yl)methanesulfonamide] | 0.1 to 0.5 µM | 0.5 to 2 µM | 0.001 to 0.025 µM | 0.1 to 0.5 µM | 0.001 to 0.025 µM | 2 to 10 µM |

The next lines start with results.

| GI50 [1] | GI50 [2] | GI50 [3] | GI50 [4] | GI50 [5] | SMILES | GI50 (parental Ba/F3 cell line) |
| --- | --- | --- | --- | --- | --- | --- |
| 0.025 to 0.1 µM | 0.1 to 0.5 µM | 0.1 to 0.5 µM | 0.001 to 0.025 µM | 0.1 to 0.5 µM | Cc1cc(Nc2ncc(Cl)c(Nc3cc4c(cc3NS(C)(=O)=O)CCO4)n2)c(Cl)cc1N1CCC(N2CCCC(N(C)C)C2)CC1 (stereo not drawn) [Example 197, N-(6-((5-chloro-2-((2-chloro-4-(3-(dimethylamino)-[1,4′-bipiperidin]-1′-yl)-5-methylphenyl)amino)pyrimidin-4-yl)amino)-2,3-dihydrobenzofuran-5-yl)methanesulfonamide] | 2 to 10 µM |
| 0.025 to 0.1 µM | 0.1 to 0.5 µM | 0.025 to 0.1 µM | 0.025 to 0.1 µM | 0.025 to 0.1 µM | CN1CCN(C2CCN(c3ccc(Nc4ncc(Cl)c(Nc5cc6c(cc5NS(C)(=O)=O)CCO6)n4)c(Cl)c3)CC2)CC1 [Example 221, N-(6-((5-chloro-2-((2-chloro-4-(4-(4-methylpiperazin-1-yl)piperidin-1-yl)phenyl)amino)pyrimidin-4-yl)amino)-2,3-dihydrobenzofuran-5-yl)methanesulfonamide] | 0.5 to 2 µM |
| 0.001 to 0.025 µM | 0.001 to 0.025 µM | 0.001 to 0.025 µM | 0.001 to 0.025 µM | 0.001 to 0.025 µM | COc1ccc(NS(C)(=O)=O)c(Nc2nc(Nc3cc(Cl)c(N4CCC(N5CCN(C)CC5)CC4)cc3OC)ncc2Cl)c1 [Example 201, N-(2-((5-chloro-2-((5-chloro-2-methoxy-4-(4-(4-methylpiperazin-1-yl)piperidin-1-yl)phenyl)amino)pyrimidin-4-yl)amino)-4-methoxyphenyl)methanesulfonamide] | 0.025 to 0.1 µM |
| 0.025 to 0.1 µM | 0.1 to 0.5 µM | 0.025 to 0.1 µM | 0.001 to 0.025 µM | 0.1 to 0.5 µM | Cc1cc(Nc2ncc(Br)c(Nc3cc4c(cc3NS(C)(=O)=O)CCO4)n2)c(Cl)cc1N1CCC(N2CCC(N(C)C)C2)CC1 (stereo not drawn) [Example 213, N-(6-((5-bromo-2-((2-chloro-4-(4-(3-(dimethylamino)pyrrolidin-1-yl)piperidin-1-yl)-5-methylphenyl)amino)pyrimidin-4-yl)amino)-2,3-dihydrobenzofuran-5-yl)methanesulfonamide] | 2 to 10 µM |
| 0.001 to 0.025 µM | 0.1 to 0.5 µM | 0.001 to 0.025 µM | 0.025 to 0.1 µM | 0.025 to 0.1 µM | COc1cc(N2CCC(N3CCCN(C)CC3)CC2)c(C)cc1Nc1ncc(Br)c(Nc2cc3c(cc2NS(C)(=O)=O)CCO3)n1 [Example 188, N-(6-((5-bromo-2-((2-methoxy-5-methyl-4-(4-(4-methyl-1,4-diazepan-1-yl)piperidin-1-yl)phenyl)amino)pyrimidin-4-yl)amino)-2,3-dihydrobenzofuran-5-yl)methanesulfonamide] | 0.5 to 2 µM |
| 0.1 to 0.5 µM | 0.5 to 2 µM | 0.1 to 0.5 µM | 0.025 to 0.1 µM | 0.025 to 0.1 µM | CN1CCN(C2CCN(c3cc(F)c(Nc4ncc(Cl)c(Nc5cc6c(cc5NS(C)(=O)=O)CCO6)n4)cc3F)CC2)CC1 [Example 268, N-(6-((5-chloro-2-((2,5-difluoro-4-(4-(4-methylpiperazin-1-yl)piperidin-1-yl)phenyl)amino)pyrimidin-4-yl)amino)-2,3-dihydrobenzofuran-5-yl)methanesulfonamide] | 2 to 10 µM |
